Test results taken from ChEMBL document CHEMBL1127720, “Adamantane and Nipecotic Acid Derivatives as Novel -Turn Mimics” (Bioorg Med Chem Lett, 1994).

How the values were obtained:
[1] = biological target: T1, Integrin alpha-IIb/beta-3 (Homo sapiens) (UniProt P05106+P08514); assay: Percent inhibition of platelet aggregation at 50 uM; type: functional
[2] = biological target: T1, Integrin alpha-IIb/beta-3 (Homo sapiens); assay: Inhibition of Fibrinogen Receptor at 50 uM; type: protein-complex assay
[3] = biological target: T1, Integrin alpha-IIb/beta-3 (Homo sapiens); assay: Percent inhibition of platelet aggregation at 20 uM; type: functional

Row | inhibition [1] [%] | inhibition [2] [%] | inhibition [3] [%] | Compound
1 | 86 | – | – | CC(=O)N[C@@H](CCCCN)C(=O)N1CCCC(C(=O)NCCC(=O)O)C1 (some centres undefined)
2 | – | 24 | – | CC(=O)N[C@@H](CCCCN)C(=O)N1CCCC(C(=O)NCC(=O)O)C1 (some centres undefined)
3 | – | 44 | 40 | CC(C)(C)OC(=O)NC(CCCCN)C(=O)NC12CC3CC(CC(NCC(=O)O)(C3)C1)C2 (centres undefined)
